Results as given in patent US7605149B1, “Modulation of the phospholipase A2 pathway as a therapeutic” (University of South Florida, priority 1998, dated 2009).
Where two headings read alike, the source gives them in different places.

Experiments:
[1] = tested on: rat aortae (aortic rings); experiment: Vessel bath vasoactivity assay: ET-1-induced vasoconstriction of rat aortic rings and its enhancement by Aβ or sPLA2; assay type: cell-based; conditions: for effect on sPLA2-induced vasoconstriction: inactivation of sPLA2
Procedure: Vessel experiments. Freshly dissected aortae were prepared from normal male Sprague-Dawley rats (7-8 months old, purchased from Zivic Miller, Zelienople, Pa.) as previously described by Paris et al, Exp Neurol 1998 and Exp Neurol 1999. Rat aortae were segmented into rings and suspended in Kreb's buffer on hooks connected to a tensiometer linked to a MacLab system. Aortic rings were equilibrated for 2 hours, in 7 mL tissue baths containing Kreb's buffer oxygenated with 95% O2: 5% CO2, and thermoregulated to 37° C. A baseline tension of 2 g was applied to each ring, and the first set of aortic rings was pretreated with the various compounds named above either alone or in combination with Aβ peptides. After 5 minutes of incubation in the presence or absence of Aβ, this first set of vessels was subjected to a dose range of ET-1 (from 1 nM to 5 nM). A second set of vessels was treated with 1 μM of Aβ peptides prior to the addition of ET-1. A third set (control) received only ET-1 treatment. Each ET-1 dose was added only after the constriction response to the previous dose had reached a plateau. In all cases the means ±1 standard error (SE) of the percentage vasoconstriction increase over baseline were determined for each dose of ET-1 used.
(§1) Statistical analysis. Analysis of variance (ANOVA) was used to analyze the data, with post-hoc comparisons of means carried out where appropriate by Sheffe's or Bonferonni's methods. As previously described (Paris et al., Neurosci Lett, 1998), a significant interactive term by ANOVA was taken as evidence that both drug x and Aβ are modulating a common signal transduction pathway. […] Levene's test for equality of variance followed by t-test for independent samples was used for single mean comparisons. Alpha levels were set at 0.05 for all analyses. Analyses were performed using SPSS for Windows release 9.5.

[2] = tested on: intact rat aortae (aortic rings); experiment: [3H]AA release in intact rat aortae; assay type: cell-based
Procedure: Measurement of [^3H]AA release in intact rat aortae. Aortic rings (1.5 mm long) were placed in 1 mL of physiological saline solution (PSS, containing 130 mM NaCl, 5 mM KCl, 1.5 mM CaCl2, 1.2 mM MgCl2, 10 mM HEPES, and 10 mM glucose adjusted to pH 7.2 with NaOH) and incubated with 2.5 μCi of [^3H]AA (specific activity of 91.8 Ci/mmol) for 24 h at 4° C. Rat aortae were subsequently washed in 50 mL of Kreb's buffer and then subjected to the vasoactivity assay. Initial background [^3H]AA release was determined following 30 min of equillibration for each aortic ring prior to treatment by removing 200 μL of Kreb's buffer (total volume of 7 mL each) from each bath, and measuring radioactivity (in cpm) after the addition of 1 mL of scintillant (EcoLume, ICN Inc., Calif.) using a liquid scintillation counter (1209 Rackbeta, WALLAC Inc., Md.). Subsequently, aortic rings were treated with sPLA2 alone or Aβ1-40 (1 μM) in the presence or absence of a MEK1/2 inhibitor (PD 98059) or a cPLA2 inhibitor (AACOCF3) for 5 min, or went untreated for the same length of time (control). Quantification of [^3H]AA release was then preformed as described above. All aortic rings were then subjected to a dose range of ET-1 (1, 2.5, and 5 nM), and radioactivity was measured 5 min after the first dose of ET-1 (1 nM), and 20 min after the second (2.5 nM) and third (5 nM) doses of ET-1. Radioactivity incorporated into each ring was determined by placing the aortic ring in 1 mL of scintillant and assaying as described above. Results are expressed as the means ±1 SE of the percentage of [^3H]AA incorporated for each aortic ring [([^3H]AA released—[^3H]AA initial background)/incorporated [^3H]AA].
as §1

[3] = tested on: N9 microglial cells; experiment: Leukotriene B4 (LTB4) ELISA on microglial cell supernatants; assay type: cell-based, murine; conditions: 18 hours, FIG. 23
Procedure: Leukotriene -B4 (LTB4) enzyme-linked immunoabsorbant assay (ELISA). Quantitative determination of LTB4 levels was made using a competitive binding ELISA (R&D Systems, Minneapolis, Minn.) designed to measure LTB4 in cell culture supernatants (as described in Paris et al., Exp Neurol 1999). A murine microglial cell line (N9) was provided by Dr. Paola Ricciardi-Castagnoli (Cellular Pharmacology Center, Milan, Italy) and were grown in RPMI medium supplemented with five percent fetal calf serum, 2 mM glutamine, 100 U/mL penicillin, […] streptomycin and 0.05 mM 2-mercaptoethanol. Microglial cells were seeded at 50,000 cells/well in 6-well plates (Falcon, France) and treated with Aβ1-40 (500 nM), drugs which oppose the PLA2/AA/5-LOX/COX-2 pathway, or untreated (control) and incubated for 18 hours. Cell supernatants were then collected and diluted 10-fold in assay buffer. 50 μL of diluted samples were then used in the assay, and each sample was assayed in duplicate. Manipulations were performed in accordance with the manufacturer's instruction. A spectramax 250 spectrophotometer (Molecular Devices, San Diego, USA) was used to measure absorbance at 405 nm and a standard curve was plotted using a 4-parameter model.
as §1

[4] = tested on: rat aortae (aortic rings); conditions: cited from earlier work
[5] = 1 μM with 1 μM Aβ1-40, 5 minutes prior to ET-1, FIGS. 7, 9, 10, 12
[6] = 5 μM with 1 μM Aβ1-40, FIGS. 11, 19
[7] = 25 μM with 1 μM Aβ1-40, FIGS. 5, 16

O[C@@H](CS)[C@@H](O)CS (racemic) [dithiothreithol]
effect on sPLA2-induced vasoconstriction ([1]; concentration not given): inhibition of sPLA2-induced vasoconstriction

CCCCC/C=C\C/C=C\C/C=C\C/C=C\CCCC(=O)O [AA, Arachidonic acid]
effect on ET-1-induced vasoconstriction ([1]; concentration not given): can enhance ET-1-induced constriction

CCCCC/C=C\C/C=C\C/C=C\C/C=C\CCCC(=O)C(F)(F)F [AACOCF3]
effect on Aβ-induced [3H]AA release from aortic rings ([2]; 1 μM with Aβ1-40 1 μM, FIG. 21): inhibited

O=C1O/C(=C/Br)CCC1c1cccc2ccccc12 (centres unmarked) [HELSS, haloenol lactone suicide substrate]
effect on Aβ vasoactivity (Aβ1-40 enhancement of ET-1-induced vasoconstriction) [1, 5]: unable to affect Aβ-induced vasoactivity

CC(C)c1ccc2c(c1)c(SC(C)(C)C)c(CC(C)(C)C(=O)O)n2Cc1ccc(Cl)cc1 [MK-886]
effect on Aβ vasoactivity (Aβ1-40 enhancement of ET-1-induced vasoconstriction) [1, 5]: markedly inhibits Aβ vasoactivity

CC[C@H](C)[C@H](NC(=O)CN)C(=O)NCC(=O)N[C@@H](C)C(=O)N[C@H](C(=O)N[C@@H](CC(C)C)C(=O)N[C@@H](CCCCN)C(=O)N[C@H](C(=O)N[C@@H](CC(C)C)C(=O)N[C@H](C(=O)N[C@H](C(=O)NCC(=O)N[C@@H](CC(C)C)C(=O)N1CCC[C@H]1C(=O)N[C@@H](C)C(=O)N[C@@H](CC(C)C)C(=O)N[C@H](C(=O)N[C@@H](CO)C(=O)N[C@@H](Cc1c[nH]c2ccccc12)C(=O)N[C@H](C(=O)N[C@@H](CCCCN)C(=O)N[C@@H](CCCNC(=N)N)C(=O)N[C@@H](CCCCN)C(=O)N[C@@H](CCCNC(=N)N)C(=O)N[C@@H](CCC(N)=O)C(=O)N[C@@H](CCC(N)=O)C(N)=O)[C@@H](C)CC)[C@@H](C)CC)[C@@H](C)O)[C@@H](C)O)C(C)C)C(C)C [Melittin]
effect on ET-1-induced vasoconstriction ([1]; 1 μM, 5 minutes prior to ET-1 dose range (1-5 nM), FIG. 3): potentiate ET-1-induced vasoconstriction to a similar extent as Aβ

CS(=O)(=O)Nc1ccc([N+](=O)[O-])cc1OC1CCCCC1 [NS-398]
effect on Aβ-induced microglial LTB4 release ([3]; 50 μM with Aβ1-40 500 nM): complete blockade of LTB4 release | effect on Aβ vasoactivity (Aβ1-40 enhancement of ET-1-induced vasoconstriction) [1, 6]: able to block Aβ vasoactivity

COc1cccc(-c2cc(=O)c3ccccc3o2)c1N [PD 98059]
effect on Aβ-induced microglial LTB4 release ([3]; 25 μM with Aβ1-40 500 nM): complete blockade of Aβ-induced microglial LTB4 release | effect on Aβ-induced [3H]AA release from aortic rings ([2]; 25 μM with Aβ1-40 1 μM, FIG. 22): blocked | effect on Aβ vasoactivity (Aβ1-40 enhancement of ET-1-induced vasoconstriction) [1, 7]: complete blockade | effect on Aβ1-42 vasoactivity ([1]; 25 μM with 1 μM Aβ1-42, FIG. 17): complete blockade | effect on sPLA2 enhancement of ET-1-induced vasoconstriction ([1]; 25 μM with 2.5 U/mL sPLA2, FIG. 18): completely inhibit sPLA2 enhancement of ET-1-induced vasoconstriction

O=c1c(O)c(-c2ccc(O)c(O)c2)oc2cc(O)cc(O)c12 [Quercetin, quercetin]
effect on Aβ vasoactivity (Aβ1-40 enhancement of ET-1-induced vasoconstriction) ([1]; 10 μM with 1 μM Aβ1-40, FIGS. 8, 14): unable to block Aβ vasoactivity

O=C(NCCCCCCNC(=O)ON=C1CCCCC1)ON=C1CCCCC1 [RHC-80267]
effect on Aβ vasoactivity (Aβ1-40 enhancement of ET-1-induced vasoconstriction) ([1]; 8 μM with 1 μM Aβ1-40, FIG. 13): not able to modulate ET-1-induced vasoconstriction or to affect Aβ enhancement of ET-1-induced vasoconstriction | effect on ET-1-induced vasoconstriction ([1]; 8 μM, 5 minutes prior to ET-1 dose range, FIG. 13): not able to modulate ET-1-induced vasoconstriction

Oc1ccc(-c2nc(-c3ccncc3)c(-c3ccc(F)cc3)[nH]2)cc1 [SB 202190]
effect on Aβ-induced microglial LTB4 release ([3]; 5 μM with Aβ1-40 500 nM): complete blockade of Aβ-induced microglial LTB4 release | effect on Aβ vasoactivity (Aβ1-40 enhancement of ET-1-induced vasoconstriction) [1, 6]: complete inhibition of Aβ vasoactivity

Nc1ncnc2c1ncn2C1CCCO1 (centres unmarked) [SQ-22536]
effect on Aβ vasoactivity ([4]; adenylyl cyclase inhibitor, reference given): does not have any effect on the vasoactive properties of Aβ

COc1cccc2c1cc([N+](=O)[O-])c1c(C(=O)O)cc3c(c12)OCO3 [aristolochic acid]
effect on Aβ vasoactivity ([1]; high doses (25 μM)): partial blockade of the vasoactive properties of Aβ | effect on Aβ vasoactivity ([1]; low doses (<10 μM)): unable to affect Aβ vasoactivity

CN(C)CCCn1cc(C2=C(c3c[nH]c4ccccc34)C(=O)NC2=O)c2ccccc21 [bisindolylmaleimide I]
effect on Aβ vasoactivity (Aβ1-40 enhancement of ET-1-induced vasoconstriction) ([1]; 1.5 μM with 1 μM Aβ1-40, FIG. 15): reduction in Aβ vasoactivity was merely additive | effect on ET-1-induced vasoconstriction ([1]; 1.5 μM, 5 minutes prior to ET-1 dose range, FIG. 15): statistically interactive reduction in ET-1-induced vasoconstriction

CCCCCCCC/C=C\CCCCCCCCOCCOP(=O)([O-])OCC[N+](C)(C)C [oleylox., oleyloxyethylphosphocholine]
effect on Aβ vasoactivity (Aβ1-40 enhancement of ET-1-induced vasoconstriction) [1, 5]: completely blocks | effect on Aβ1-42 vasoactivity ([1]; 1 μM with Aβ1-42): completely blocks | effect on sPLA2-induced vasoconstriction ([1]; concentration not given): inhibition of sPLA2-induced vasoconstriction

CC(C)NCC(O)COc1cccc2ccccc12 (centres unmarked) [propanolol]
effect on Aβ vasoactivity ([1]; concentration not given): unable to block Aβ vasoactivity

APP657-676: APP-derived peptide, a known stimulator of Go (EFRHDSGYEVHHQKLVFFAE; UniProt P05067 674-693, looked up, fragment)
effect on Aβ vasoactivity ([1]; concentration not given): not able to modulate ET-1-induced vasoconstriction or to affect Aβ-vasoactivity | effect on ET-1-induced vasoconstriction ([1]; concentration not given): not able to modulate ET-1-induced vasoconstriction

Aβ1-42: soluble β-amyloid peptide with forty-two amino acids, obtained from QCB
magnitude of constriction induced by ET-1 in isolated mammalian vessels ([4]; freshly solubilized, previously shown (Crawford et al., 1998)): increase the magnitude of constriction induced by ET-1

diacylglycerol [DAG]
effect on ET-1-induced vasoconstriction ([1]; 10 μM, 5 minutes prior to ET-1 dose range, FIG. 14): able to potentiate ET-1-induced vasoconstriction

isotetrandrine
effect on Aβ vasoactivity (Aβ1-40 enhancement of ET-1-induced vasoconstriction) [1, 7]: partially blocked Aβ vasoactivity

mastoparan
effect on ET-1-induced vasoconstriction ([1]; 5 μM, 5 minutes prior to ET-1 dose range, FIG. 4): potentiate ET-1-induced vasoconstriction to a similar extent as Aβ

p-aminophenyl-α-D-mannopyranoside-bovine serum albumin [mannose-BSA]
effect on ET-1-induced vasoconstriction [1]: vasoactive to a similar extent as Aβ

pertussis toxin
effect on Aβ vasoactivity ([1]; concentration not given): insensitive
